Measured values as given in US20240139125A1 (INDUSTRIAL COOPERATION FOUNDATION JEONBUK NATIONAL …, priority 2020, published 2024).
Where a name gives a salt, the structure may show the parent alone.

Columns and labels:
[1] = Cell viability for BIA and analogues, HT1080 cell line; type: cell-based; details: human, HT1080 fibrosarcoma cells; for viability at 5 µM: HT1080, 5 uM; for viability at 10 µM: HT1080, 10 uM
Protocol: HT1080 MDA-MB-231, SKBR3 and MCF7 cell lines were cultured in a 37° C., 5% CO2 incubator in a medium with 10% Fetal Bovine Serum, 1% penicillin and streptomycin (100 U) added to DMEM.
(§1) The compound prepared in Example 15 was treated with HT1080 fibrosarcoma cell line at 5 μM and 10 μM and cell viability was measured. In addition, the compound prepared in Example 15 on the DU145 prostate cancer cell line was treated with 10 μM, 20 μM, and 30 μM and cell viability was measured (see Table 2, Table 3).

[2] = Cell viability for BIA and analogues, DU145 cell line; type: cell-based; details: human; for viability at 10 µM: DU145, 10 uM; for viability at 20 µM: DU145, 20 uM; for viability: DU145, 50 rpm
Protocol: as §1

| SMILES | viability at 5 µM [1] | viability at 10 µM [1] | viability at 10 µM [2] | viability at 20 µM [2] | viability [2] |
| --- | --- | --- | --- | --- | --- |
| Nc1ccccc1-c1cc(-c2cccc(C(F)(F)F)c2)ncn1 | 99.6% | 97.3% | 95.3% | 87.8% | 74.8% |
| Nc1ccccc1C(=O)/C=C/c1ccccc1 [GM-90130, (E)-1-(2-aminophenyl)-3-phenylprop-2-en-1-one] | 99.5% | 31.7% | 78.7% | 79.4% | 48.3% |
| COc1cccc(/C=C/C(=O)c2ccccc2N)c1 [GM-90131, (E)-1-(2-aminophenyl)-3-(3-methoxyphenyl)prop-2-en-1-one] | 101% | 37.4% | 81.5% | 74% | 33.2% |
| Nc1ccccc1C(=O)/C=C/c1cccc(Br)c1 [GM-90132, (E)-1-(2-aminophenyl)-3-(3-bromophenyl)prop-2-en-1-one] | 100% | 30.9% | 81.5% | 71.2% | 19.9% |
| Nc1ccccc1C(=O)/C=C/c1ccc([N+](=O)[O-])cc1 [GM-90133, (E)-1-(2-aminophenyl)-3-(4-nitrophenyl)prop-2-en-1-one] | 101% | 54.9% | 50.5% | 35.2% | 26.8% |
| COc1ccccc1C(=O)/C=C/c1cccc([N+](=O)[O-])c1 [GM-90134, (E)-1-(2-methoxyphenyl)-3-(3-nitrophenyl)prop-2-en-1-one] | 99.1% | 96.6% | 31.5% | 25.4% | 22.8% |
| O=C(/C=C/c1cccc([N+](=O)[O-])c1)c1ccccc1O [GM-90135, (E)-1-(2-hydroxyphenyl)-3-(3-nitrophenyl)prop-2-en-1-one] | 99.9% | 96.8% | 88.5% | 87.3% | 64.5% |
| Nc1ccccc1C(=O)/C=C/c1ccc(OC(F)(F)F)cc1 [GM-90222, (E)-1-(2-aminophenyl)-3-(4-(trifluoromethoxy)phenyl)prop-2-en-1-one] | 109% | 92% | 40.7% | 31.3% | 28.9% |
| Nc1ccccc1C(=O)/C=C/c1ccc(F)cc1F [GM-90223, (E)-1-(2-aminophenyl)-3-(2,4-difluorophenyl)prop-2-en-1-one] | 93.8% | 86% | 26.5% | 26.3% | 21.1% |
| CCOc1cc(F)ccc1/C=C/C(=O)c1ccccc1N [GM-90224, (E)-1-(2-aminophenyl)-3-(2-ethoxy-4-fluorophenyl)prop-2-en-1-one] | 108% | 99.7% | 90.5% | 90% | 75.8% |
| Nc1ccccc1C(=O)/C=C/c1ccc2ccccc2c1 [GM-90225, (E)-1-(2-aminophenyl)-3-(naphthalen-2-yl)prop-2-en-1-one] | 70.5% | 43.5% | 87.4% | 79.4% | 71.2% |
| Nc1ccccc1C(=O)/C=C/c1ccc(C(F)(F)F)cc1 [GM-90226, (E)-1-(2-aminophenyl)-3-(4-(trifluoromethyl)phenyl)prop-2-en-1-one] | 83.9% | 15.4% | 68.1% | 46.8% | 11.8% |
| Cc1ccc(/C=C/C(=O)c2ccccc2N)cc1 [GM-90227, (E)-1-(2-aminophenyl)-3-(p-tolyl)prop-2-en-1-one] | 108% | 96.3% | 43.3% | 36.1% | 28.2% |
| CCOc1ccc([N+](=O)[O-])cc1/C=C/C(=O)c1ccccc1N [GM-90229, (E)-1-(2-aminophenyl)-3-(2-ethoxy-5-nitrophenyl)prop-2-en-1-one] | 64.4% | 15.7% | 53.1% | 40.5% | 21.1% |
| CCOc1ccc([N+](=O)[O-])cc1C(O)CC(=O)c1ccccc1N (centres unmarked) [GM-90230, 1-(2-aminophenyl)-3-(2-ethoxy-5-nitrophenyl)-3-hydroxypropan-1-one] | 108% | 98.8% | 66.3% | 29.1% | 29.3% |
| CC(C)(C)c1ccc(/C=C/C(=O)c2ccccc2N)cc1 [GM-90243, (E)-1-(2-aminophenyl)-3-(4-(tert-butyl)phenyl)prop-2-en-1-one] | 66.8% | 39.2% | 31.8% | 28.2% | 14.3% |

| SMILES | viability at 5 µM [1] | viability at 10 µM [1] | viability at 10 µM [2] | viability at 20 µM [2] | viability [2] |
| --- | --- | --- | --- | --- | --- |
| COc1cc(N)c(C(=O)/C=C/c2cccc(Br)c2)cc1OC [GM-90255, (E)-1-(2-amino-4,5-dimethoxyphenyl)-3-(3-bromophenyl)prop-2-en-1-one] | 88.1% | 33.4% | 88.7% | 70.2% | 66.4% |
| COc1cccc(/C=C/C(=O)c2cc(OC)c(OC)cc2N)c1 [GM-90256, (E)-1-(2-amino-4,5-dimethoxyphenyl)-3-(3-methoxyphenyl)prop-2-en-1-one] | 82.4% | 46.3% | 76.3% | 60.2% | 54.9% |
| Nc1ccccc1C(=O)/C=C/c1cc(O)cc(Br)c1 [GM-90281, (E)-1-(2-aminophenyl)-3-(3-bromo-5-hydroxyphenyl)prop-2-en-1-one] | 11.4% | 11.1% | 77.4% | 76.4% | 67% |
| N#Cc1cccc(/C=C/C(=O)c2ccccc2N)c1 [GM-90282, (E)-3-(3-(2-aminophenyl)-3-oxoprop-1-en-1-yl)benzonitrile] | 12.2% | 7.14% | 72.9% | 53.4% | 9.57% |
| Nc1ccccc1C(=O)/C=C/c1cccc(C(F)(F)F)c1 [GM-90283, (E)-1-(2-aminophenyl)-3-(3-(trifluoromethyl)phenyl)prop-2-en-1-one] | 18.1% | 11.9% | 59.9% | 33.1% | 22.9% |
| Cc1cccc(/C=C/C(=O)c2ccccc2N)c1 [GM-90284, (E)-1-(2-aminophenyl)-3-(m-tolyl)prop-2-en-1-one] | 86.4% | 18.8% | 88.4% | 81% | 79% |
| Nc1ccccc1C(=O)/C=C/c1cccnc1 [GM-90285, (E)-1-(2-aminophenyl)-3-(pyridin-3-yl)prop-2-en-1-one] | 71.5% | 8.35% | 83.5% | 82.8% | 78.8% |
| COc1ccc(C(=O)/C=C/c2cccc([N+](=O)[O-])c2)c(N)c1 [GM-90297, (E)-1-(2-amino-4-methoxyphenyl)-3-(3-nitrophenyl)prop-2-en-1-one] | 93.3% | 18.2% | 85.7% | 87.2% | 83% |
| CNC(=O)c1cccc(/C=C/C(=O)c2ccccc2N)c1 [GM-90300, (E)-3-(3-(2-aminophenyl)-3-oxoprop-1-en-1-yl)-N-methyl benzamide] | 99.5% | 23.4% | 62.6% | 58.5% | 54.5% |
| Nc1cccc(/C=C/C(=O)c2ccccc2N)c1 [GM-90315, (E)-1-(2-aminophenyl)-3-(3-aminophenyl)prop-2-en-1-one Hydrochloride] | 41.1% | 11.2% | 98% | 97.9% | 88.9% |
| Nc1ccccc1C(=O)/C=C/c1cc(F)c(O)c(F)c1 [GM-90316, (E)-1-(2-aminophenyl)-3-(3,5-difluoro-4-hydroxyphenyl)prop-2-en-1-one] | 101% | 67.8% | 87.4% | 60% | 38.4% |
| Nc1ccccc1C(=O)/C=C/c1cccc(Cl)c1 [GM-90317, (E)-1-(2-aminophenyl)-3-(3-chlorophenyl)prop-2-en-1-one] | 46.8% | 14.4% | 32.4% | 28.1% | 11.9% |
| COc1cc(N)c(C(=O)/C=C/c2cccc(C#N)c2)cc1OC [GM-90319, (E)-3-(3-(2-amino-4,5-dimethoxyphenyl)-3-oxoprop-1-en-1-yl)benzonitrile] | 46.6% | 9.94% | 110% | 88.1% | 85.8% |
| COc1cc(N)c(C(=O)/C=C/c2cccc(C(F)(F)F)c2)cc1OC [GM-90320, (E)-1-(2-amino-4,5-dimethoxyphenyl)-3-(3-(trifluoromethyl)phenyl)prop-2-en-1-one] | 94.5% | 62.7% | 89.1% | 89.1% | 82.4% |
| COc1cc(N)c(C(=O)/C=C/c2cc(O)cc(Br)c2)cc1OC [GM-90321, (E)-1-(2-amino-4,5-dimethoxyphenyl)-3-(3-bromo-5-hydroxyphenyl)prop-2-en-1-one] | 61.2% | 21.2% | 83.6% | 81.8% | 84.8% |
